Test results as given in PubChem BioAssay (NCI).
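Each compound was tested at five concentrations against cells in 96-well plates for 48 hours. TGI is the concentration that stops growth completely.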

Columns and labels:
Experiment in all cases: NCI anticancer screen, dose series, 48 h
OVCAR-8 ovarian = tested on: OVCAR-8 ovarian
RPMI-8226 leukemia = tested on: RPMI-8226 leukemia
CAKI-1 renal = tested on: CAKI-1 renal
UO-31 renal = tested on: UO-31 renal
SK-MEL-2 melanoma = tested on: SK-MEL-2 melanoma
SF-295 CNS = tested on: SF-295 CNS
OVCAR-5 ovarian = tested on: OVCAR-5 ovarian
ACHN renal = tested on: ACHN renal
KM12 colon = tested on: KM12 colon
SK-MEL-28 melanoma = tested on: SK-MEL-28 melanoma
OVCAR-3 ovarian = tested on: OVCAR-3 ovarian
NCI-H522 lung = tested on: NCI-H522 lung
U251 CNS = tested on: U251 CNS
MCF7 breast = tested on: MCF7 breast

SMILES	TGI (OVCAR-8 ovarian) [µM]	TGI (RPMI-8226 leukemia) [µM]	TGI (CAKI-1 renal) [µM]	TGI (UO-31 renal) [µM]	TGI (SK-MEL-2 melanoma) [µM]	TGI (SF-295 CNS) [µM]	TGI (OVCAR-5 ovarian) [µM]	TGI (ACHN renal) [µM]	TGI (KM12 colon) [µM]	TGI (SK-MEL-28 melanoma) [µM]	TGI (OVCAR-3 ovarian) [µM]	TGI (NCI-H522 lung) [µM]	TGI (U251 CNS) [µM]	TGI (MCF7 breast) [µM]
OC1OC(c2ccc[nH]2)C(F)(F)C(F)(F)C1(F)F (stereo not drawn)	> 100	> 100	> 100	> 100	> 100	> 100	> 100	> 100	> 100	> 100	> 100	> 100	> 100	> 100
CCOP(=O)(CCC(O)CNc1nc(N)nc(Cl)c1N=Nc1ccc(Cl)cc1)OCC (stereo not drawn)	> 100	42.7	14.5	16.6	24.3	38	34.1	31.6	37.5	25.9	25.3	23	51.2	26.3
CCC/C(Cl)=N\OC(=O)Nc1ccc(Br)cc1	28.9	12.2	5.77	25.7	28.9	30.2	27.8	20.3	16.2	32.5	16.3	3.53	32.1	19.7
O=C(n1[nH]c(=O)n(-c2ccc([N+](=O)[O-])cc2)c1=O)C(Cl)(Cl)Cl	> 75	> 75	> 75	> 75	> 75	> 75	> 75	> 75	> 75	> 75	> 75	> 75	> 75	> 75
CC1=C/C(=N\N(C)C)C(C(O)(C(F)(F)F)C(F)(F)F)C(C)(C)C1 (stereo not drawn)	> 100	> 100	> 100	> 100	> 100	> 100	> 100	> 100	> 100	> 100	87.8	> 100	> 100	> 100
CC(=O)NNc1nc(C)c(C(/C=C/c2ccccc2O)=N/NC(=O)c2ccncc2)s1	> 100	> 100	> 100	> 100	> 100	> 100	> 100	> 100	> 100	> 100	> 100	> 100	> 100	> 100
C#CCOC(=O)C(N)CS (stereo not drawn)	> 100	> 100	> 100	> 100	> 100	> 100	> 100	> 100	> 100	> 100	> 100	> 100	> 100	> 100
